ChEMBL document CHEMBL1201862, “PubChem BioAssay data set” (2004)
Active and inactive are the calls of the source.

Assays:
[1] = target: T1, Replicative DNA helicase DnaB (Mycobacterium tuberculosis, UniProt P9WMR3); assay: DnaB intein splicing inhibitors, dose response, biochemical, cell-free fluorescence (AID 449749); assay type: functional
T1 sequence (P9WMR3 whole entry): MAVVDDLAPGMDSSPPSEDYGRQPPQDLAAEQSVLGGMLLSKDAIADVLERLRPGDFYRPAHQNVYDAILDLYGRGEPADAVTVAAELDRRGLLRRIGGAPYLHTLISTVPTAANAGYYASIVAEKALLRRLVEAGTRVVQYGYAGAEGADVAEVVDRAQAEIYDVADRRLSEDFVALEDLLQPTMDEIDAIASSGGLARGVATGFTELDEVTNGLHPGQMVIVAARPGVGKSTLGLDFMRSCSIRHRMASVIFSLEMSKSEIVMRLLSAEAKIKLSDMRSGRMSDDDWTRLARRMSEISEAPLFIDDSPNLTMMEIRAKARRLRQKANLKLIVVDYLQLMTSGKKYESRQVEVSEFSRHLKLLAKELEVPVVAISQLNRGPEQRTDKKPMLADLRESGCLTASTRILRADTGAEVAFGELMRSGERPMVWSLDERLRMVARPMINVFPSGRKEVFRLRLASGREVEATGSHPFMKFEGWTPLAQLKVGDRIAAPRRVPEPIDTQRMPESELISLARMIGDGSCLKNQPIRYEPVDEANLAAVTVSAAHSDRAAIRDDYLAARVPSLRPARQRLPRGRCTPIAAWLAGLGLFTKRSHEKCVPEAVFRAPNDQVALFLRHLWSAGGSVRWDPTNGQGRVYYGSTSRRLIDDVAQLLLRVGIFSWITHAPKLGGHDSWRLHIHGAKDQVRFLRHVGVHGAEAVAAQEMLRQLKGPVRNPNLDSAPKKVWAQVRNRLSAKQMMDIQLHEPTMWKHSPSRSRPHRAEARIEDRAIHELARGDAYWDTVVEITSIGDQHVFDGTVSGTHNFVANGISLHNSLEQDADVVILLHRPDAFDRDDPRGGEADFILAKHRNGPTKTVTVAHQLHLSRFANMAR

[2] = target: T2, Protein RecA (Mycobacterium tuberculosis, UniProt P9WHJ3); assay: Fluorescence Cell-Free Homogeneous Dose Retest to Identify Inhibitors of RecA-Intein Splicing Activity. [Related pubchem assays (depositor defined):AID2097, AID2223, AID489010, AID492950]; assay type: functional
T2 sequence (P9WHJ3 whole entry): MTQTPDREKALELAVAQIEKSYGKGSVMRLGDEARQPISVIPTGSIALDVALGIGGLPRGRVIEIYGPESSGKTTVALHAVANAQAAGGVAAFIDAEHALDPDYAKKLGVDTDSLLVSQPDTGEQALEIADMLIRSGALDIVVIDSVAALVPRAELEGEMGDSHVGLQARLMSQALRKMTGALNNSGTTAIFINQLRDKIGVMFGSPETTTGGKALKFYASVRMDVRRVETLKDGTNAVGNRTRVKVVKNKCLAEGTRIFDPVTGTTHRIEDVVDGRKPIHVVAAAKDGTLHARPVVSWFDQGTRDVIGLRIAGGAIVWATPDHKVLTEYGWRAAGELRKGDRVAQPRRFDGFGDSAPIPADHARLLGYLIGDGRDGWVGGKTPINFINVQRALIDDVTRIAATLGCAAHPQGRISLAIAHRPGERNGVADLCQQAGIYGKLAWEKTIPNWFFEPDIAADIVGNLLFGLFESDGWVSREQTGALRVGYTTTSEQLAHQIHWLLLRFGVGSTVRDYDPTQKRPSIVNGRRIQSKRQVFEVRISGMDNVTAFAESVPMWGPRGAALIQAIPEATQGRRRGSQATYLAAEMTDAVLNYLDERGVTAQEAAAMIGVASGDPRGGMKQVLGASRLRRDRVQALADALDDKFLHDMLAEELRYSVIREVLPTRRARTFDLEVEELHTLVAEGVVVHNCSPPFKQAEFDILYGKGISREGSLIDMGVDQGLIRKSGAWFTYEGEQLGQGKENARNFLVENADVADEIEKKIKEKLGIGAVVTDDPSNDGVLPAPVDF

[3] = cytotoxicity in MIN6 insulinoma cells, dose response, cytotoxicity control, cell-based, mouse insulinoma (AID 2122); assay type: functional;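 note: confirmatory high-throughput counterscreen run to flag cytotoxic compounds; mouse MIN-6 beta cells carrying an insulin promoter eGFP reporter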
[4] = tested on: INS1; assay: beta cell apoptosis inhibitors, cytokine rescue, dose response, luminescence, retest (AID 449756); assay type: functional, cell-based; conditions: Rattus norvegicus;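 note: cell death triggered by IL-1 beta plus TNF-alpha plus IFN-gamma mixture; protective hits raise ATP signal compared with cytokine alone wells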
[5] = target: T3, Ubiquitin-conjugating enzyme E2 N (Homo sapiens, UniProt P61088); assay type: functional;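 note: Dose-response confirmation in a TR-FRET assay detecting UBC13-driven polyubiquitin chain formation, inhibition measured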
T3 sequence (P61088 whole entry): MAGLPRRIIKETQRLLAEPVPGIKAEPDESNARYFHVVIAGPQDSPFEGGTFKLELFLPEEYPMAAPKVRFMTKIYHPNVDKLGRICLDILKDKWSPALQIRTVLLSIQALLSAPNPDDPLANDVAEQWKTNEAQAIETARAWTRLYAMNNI

[6] = insulin promoter down-regulators in MIN6 cells, imaging, high-content screening, mouse beta cells (AID 1628); assay type: functional
[7] = target: Cytochrome P450 3A4 (Homo sapiens, UniProt P08684);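 note: CYP3A4 tested as one member of a cytochrome P450 panel screen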
Sequence of Cytochrome P450 3A4 (P08684 whole entry): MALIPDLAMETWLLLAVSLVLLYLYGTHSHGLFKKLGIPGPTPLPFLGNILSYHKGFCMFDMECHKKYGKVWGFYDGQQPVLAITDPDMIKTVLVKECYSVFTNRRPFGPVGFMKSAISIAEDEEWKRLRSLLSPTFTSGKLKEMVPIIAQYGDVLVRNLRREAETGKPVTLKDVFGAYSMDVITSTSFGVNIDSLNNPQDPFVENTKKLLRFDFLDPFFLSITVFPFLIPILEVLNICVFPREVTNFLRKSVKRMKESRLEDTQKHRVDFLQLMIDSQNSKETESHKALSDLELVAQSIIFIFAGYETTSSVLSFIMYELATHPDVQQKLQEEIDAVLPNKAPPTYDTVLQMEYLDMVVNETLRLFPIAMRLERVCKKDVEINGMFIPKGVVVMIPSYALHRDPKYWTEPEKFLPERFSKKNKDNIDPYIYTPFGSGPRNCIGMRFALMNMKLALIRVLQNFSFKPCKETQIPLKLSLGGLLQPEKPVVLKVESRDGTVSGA

[8] = target: T4, Cytochrome P450 2C9 (Homo sapiens, UniProt P11712)
T4 sequence (P11712 whole entry): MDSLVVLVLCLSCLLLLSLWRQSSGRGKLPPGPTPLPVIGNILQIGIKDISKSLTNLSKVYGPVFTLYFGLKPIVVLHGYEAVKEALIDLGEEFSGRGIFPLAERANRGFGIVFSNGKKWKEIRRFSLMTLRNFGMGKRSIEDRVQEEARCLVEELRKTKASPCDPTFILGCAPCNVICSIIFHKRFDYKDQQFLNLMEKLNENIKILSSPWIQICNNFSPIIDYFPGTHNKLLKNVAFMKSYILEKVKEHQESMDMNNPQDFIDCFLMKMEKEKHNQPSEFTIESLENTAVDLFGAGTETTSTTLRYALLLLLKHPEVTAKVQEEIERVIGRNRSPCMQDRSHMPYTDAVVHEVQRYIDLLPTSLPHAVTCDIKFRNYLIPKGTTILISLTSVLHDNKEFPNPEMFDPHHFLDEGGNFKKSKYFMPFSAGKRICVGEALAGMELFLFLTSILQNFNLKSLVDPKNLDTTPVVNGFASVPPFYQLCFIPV

[9] = target: T5, Heat shock factor protein 1 (Mus musculus, UniProt P38532); assay: HSF1 potentiators in luciferase reporter cells, confirmation, cell-based, NIH3T3, luminescence, dose retest (AID 435004); assay type: functional;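 note: stress induced by proteasome inhibitor MG132 added 30 min after compound; luciferase reporter driven by HSF1 response element in NIH3T3 cells; actives raise luminescence as potentiators of the MG132 stress response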
T5 sequence (P38532 whole entry): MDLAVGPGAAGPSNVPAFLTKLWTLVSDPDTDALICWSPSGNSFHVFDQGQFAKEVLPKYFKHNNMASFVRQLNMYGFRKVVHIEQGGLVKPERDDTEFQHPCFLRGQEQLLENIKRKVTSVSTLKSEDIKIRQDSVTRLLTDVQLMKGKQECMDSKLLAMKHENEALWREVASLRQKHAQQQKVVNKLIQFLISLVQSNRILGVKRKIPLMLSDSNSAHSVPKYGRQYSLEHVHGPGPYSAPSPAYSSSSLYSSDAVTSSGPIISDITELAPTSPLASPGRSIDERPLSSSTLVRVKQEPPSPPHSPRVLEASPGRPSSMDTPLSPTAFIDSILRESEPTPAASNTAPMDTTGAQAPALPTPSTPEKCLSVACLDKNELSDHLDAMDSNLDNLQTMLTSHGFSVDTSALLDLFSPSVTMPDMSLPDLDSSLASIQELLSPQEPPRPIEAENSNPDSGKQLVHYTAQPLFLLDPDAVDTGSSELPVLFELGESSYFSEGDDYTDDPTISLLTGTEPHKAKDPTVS

[10] = target: T4, Cytochrome P450 2C9; remark: listed apart in the source
[11] = growth suppression of beta-catenin-knockout colon cells, dose response, cell-based, HCT116, human colon tumor (AID 1045); assay type: functional;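 note: HCT116 colon tumor cells with beta catenin knocked out; cells exposed to compound for 60 hours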
[12] = growth suppression of PTEN-null colon cells, dose response, cell-based, HCT116 PTEN knockout (AID 1047); assay type: functional;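 note: HCT116 colon tumor cells with PTEN knocked out; cells exposed to compound for 60 hours before readout; potency for loss of cell viability measured by luminescence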
[13] = Luminescence Cell-Based Dose Retest to Confirm Inhibitors of Cancer Stem Cells. [Related pubchem assays (depositor defined):AID2717, AID2721]; assay type: functional; conditions: Homo sapiens
[14] = target: T6, Microphthalmia-associated transcription factor (Homo sapiens, UniProt O75030); assay: TRPM1 promoter luciferase signal decrease, dose response, MITF inhibitor project, cell-based, SK-MEL-5, cherry-picked, set 3 (AID 493073); assay type: functional
T6 sequence (O75030 whole entry): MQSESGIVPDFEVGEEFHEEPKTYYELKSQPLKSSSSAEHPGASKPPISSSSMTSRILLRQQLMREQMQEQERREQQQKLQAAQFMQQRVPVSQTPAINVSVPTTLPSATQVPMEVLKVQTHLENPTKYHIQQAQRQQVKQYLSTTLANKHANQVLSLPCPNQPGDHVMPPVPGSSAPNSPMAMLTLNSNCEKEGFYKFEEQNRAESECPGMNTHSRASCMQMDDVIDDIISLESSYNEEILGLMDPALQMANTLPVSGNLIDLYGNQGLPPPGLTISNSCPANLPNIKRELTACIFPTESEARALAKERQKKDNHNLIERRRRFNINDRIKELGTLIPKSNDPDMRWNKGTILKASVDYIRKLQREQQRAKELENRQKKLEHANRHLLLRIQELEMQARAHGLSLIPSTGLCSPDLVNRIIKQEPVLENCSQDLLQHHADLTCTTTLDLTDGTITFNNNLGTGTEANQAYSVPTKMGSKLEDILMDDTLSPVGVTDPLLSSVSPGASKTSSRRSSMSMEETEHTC

[15] = tested on: A-375; assay: A375 melanoma cell viability reduction, dose response, counter-screen for MITF modulator project, cherry-pick samples, set 2 (AID 540335); assay type: functional, cell-based; conditions: Homo sapiens
[16] = cytotoxicity in HEK-293T cells, dose response, cytotoxicity control for TCR NF-kB inhibitor project, luminescence, T-cell screen hits (AID 489026); assay type: functional, cell-based;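 note: cells exposed to compound about 14 hours before the viability readout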
[17] = cytotoxicity toward DRD oncogenic fibroblasts, dose response, cell-based, non-viral oncogenic, luminescence (AID 1934); assay type: functional; conditions: Homo sapiens
[18] = tested on: BJ; assay: cells; assay type: functional, cell-based; conditions: Homo sapiens
[19] = tested on: BJ; assay: cytotoxicity toward BJ-TERT fibroblasts, dose response, cell-based, RAS-independent, luminescence (AID 1933); assay type: functional; conditions: Homo sapiens
[20] = tested on: BJ; assay: cytotoxicity toward BJ-TERT-LT-ST fibroblasts, dose response, cell-based, RAS-independent, luminescence (AID 1935); assay type: functional; conditions: Homo sapiens;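 note: BJ fibroblasts immortalized with TERT plus LT and ST oncogenes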
[21] = target: Eukaryotic translation initiation factor 4E (Mus musculus, UniProt P63073); assay: eIF4E–eIF4G protein interaction inhibitors, dose response, biochemical, TR-FRET (AID 855); assay type: functional;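 note: potency for disrupting eIF4E binding to eIF4GI seen as loss of FRET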
Sequence of Eukaryotic translation initiation factor 4E (P63073 whole entry): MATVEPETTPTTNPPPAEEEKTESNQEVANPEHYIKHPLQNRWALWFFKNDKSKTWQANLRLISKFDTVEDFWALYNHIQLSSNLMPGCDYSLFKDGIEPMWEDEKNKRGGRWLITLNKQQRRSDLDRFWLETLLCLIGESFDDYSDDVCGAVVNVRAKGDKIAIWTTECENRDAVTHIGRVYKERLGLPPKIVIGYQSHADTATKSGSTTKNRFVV

With `c1ccc(Nc2nc(NCc3ccco3)c3ccccc3n2)cc1` the AC50 [1] was 3.66 µM (active), the EC50 [2] was 12 µM (active) and the IC50 [3] was 1.08 µM (active). The AC50 [4] was 5.14 µM (active), the IC50 [5] was > 20 µM (inactive) and the IC50 [6] was 1.22 µM (active).

For `O=c1[nH]c(=O)n(Cc2ccco2)c2c1C(C(F)(F)F)(C(F)(F)F)NC(CCC1CCCCC1)=N2`, the AC50 [7] was “inconclusive” and the AC50 [8] was 2.82 µM (inconclusive).

For `Cc1nc2ccccc2n1CC(O)COCC1CC=CCC1` (centres undefined), the EC50 [9] was > 260 µM (inactive), the IC50 [3] was 1.67 µM (active) and the IC50 [6] was 2.27 µM (active).

For `C=CCNc1sc(C(=O)c2ccccc2)c(N)c1C#N`, the AC50 [10] was “inconclusive” and the AC50 [7] was “inconclusive”.

With `CN(C)CCNC(=O)/C(=C/c1ccc(-c2ccc(Cl)cc2Cl)o1)NC(=O)c1ccccc1` the EC50 [11] was 4.99 µM (active), the AC50 [4] was 7.89 µM (active) and the EC50 [12] was 5.71 µM (active). For the same compound, the AC50 [13] was 6.63 µM (active), the AC50 [14] was 4.97 µM (active) and the AC50 [15] was 18.9 µM (active).

With `O=C(Nc1ccc(CSc2ccccc2)cc1)c1ccc(CN2CCOCC2)cc1` the IC50 [16] was > 80 µM (inactive).

In the case of `CCN(CC(=O)Nc1ccccc1-c1ccccc1)Cc1nc(O)c2ccccc2n1`, the EC50 [17] was 17.9 µM (active), the EC50 [18] was 67.2 µM (active) and the EC50 [19] was 20.1 µM (active). The EC50 [20] was > 75 µM (not active).

For `Cc1nc(N2CCCCC2)sc1C(=O)c1cccc([N+](=O)[O-])c1`, the EC50 [17] was > 150 µM (not active), the EC50 [18] was > 150 µM (not active) and the EC50 [19] was > 150 µM (not active). For the same compound, the EC50 [20] was > 150 µM (not active).

For `COc1ccc(-c2noc(CSc3nc(N)c(-c4ccccc4)c(=O)[nH]3)n2)cc1OC`, the IC50 [21] was > 64 µM (inactive).
